# Where a name gives a salt, the structure may show the parent alone.
# Columns and labels:
# MAO-B = molecular target: T1, MAO-B (Rattus norvegicus, UniProt P19643); assay: Inhibition of MAO activity following sub-acute administration to rats; format: in vivo; set-up: from tissue; host or cells: rat brain, liver and intestine; settings: sc, read-out: % MAO-B inhibition, Intestine, dose head prints 25 mg/kg (6 mg/kg sc) daily for 14 days
# T1 sequence (P19643 1-520): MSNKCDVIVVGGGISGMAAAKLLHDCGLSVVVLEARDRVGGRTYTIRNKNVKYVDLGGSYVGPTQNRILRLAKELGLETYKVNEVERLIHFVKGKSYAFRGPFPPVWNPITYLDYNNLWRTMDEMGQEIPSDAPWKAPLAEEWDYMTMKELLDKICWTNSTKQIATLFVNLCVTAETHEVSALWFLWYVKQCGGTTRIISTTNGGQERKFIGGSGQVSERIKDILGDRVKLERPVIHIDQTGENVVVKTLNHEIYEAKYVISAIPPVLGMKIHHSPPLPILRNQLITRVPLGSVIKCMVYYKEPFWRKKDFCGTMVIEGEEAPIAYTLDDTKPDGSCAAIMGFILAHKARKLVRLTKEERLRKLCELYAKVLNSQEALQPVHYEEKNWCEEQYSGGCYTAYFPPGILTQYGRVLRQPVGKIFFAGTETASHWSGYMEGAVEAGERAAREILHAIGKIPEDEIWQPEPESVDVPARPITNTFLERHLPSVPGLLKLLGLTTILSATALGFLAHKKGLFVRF
# Protocol: Substrate concentrations used were 50 μM (PEA) and 1 mM (5-HT).
# Male Sabra mice, weighing 45-50 g were injected with test compound solutions (prepared in 0.9% saline). Each dose was administered to two or three mice. The mice were sacrificed two hours after drug administration or at a time corresponding to the peak AChE inhibition time (see Table 11). The brain and liver were rapidly dissected and stored in appropriate vials on ice. The tissues were weighed, diluted to ½ in sucrose 0.3M and stored at −20° C. before performance of the MAO assay described above. The results given in Table 11 relate to measurements made on brain tissue only.
# Experiments were done in Sprague Dawley male rats. […] At the end of this period animals were sacrificed and MAO levels determined in the brain, liver and intestines.
# [1] = system: Closed Head Injury (CHI) in Mice; assay: Morris Water Maze Test after closed head injury (reference memory); settings: retested daily for 2 weeks
# Protocol: Morris Water Maze Test: the water maze consists of a circular aluminium pool, im in diameter and 60 cm in depth, filled with water to a depth of 17.5 cm. The hidden goal platform is a glass vessel (15 cm diameter×16.5 cm height) placed upside down at a fixed location in the pool, 1 cm below the surface of the water. The water temperature is maintained at 24° C. and the pool is always placed in the same position in the room to provide the same extra-maze cues. […] Commencing 24 hr after CHI, mice were retested daily for 2 weeks in 3 trials per day.
compound,measurement,setting,value
"C#CCNC1CCc2ccc(OC(=O)N(C)C)cc21 (stereo not drawn) [Compound 24, 6-(N,N-Dimethylcarbamyloxy)-N-propargyl aminoindan mesylate]",inhibition at 6 mg/kg,MAO-B,0%
"C#CCNC1CCc2ccc(OC(=O)N(C)CC)cc21 (stereo not drawn) [Compound 25, 6-(N-Me, N-Etcarbamyloxy) N-propargyl aminoindan, HCl]","reduction in latency to find the platform, Morris Water Maze, compared to saline treated controls","[1]; 46 mg/kg, FIG. 2",Memory is enhanced
CCN(C)C(=O)Oc1ccc2c(c1)C(NC)CC2 (stereo not drawn) [Compound 10],"reduction in latency to find the platform, Morris Water Maze, compared to saline treated controls","[1]; 15 mg/kg, FIG. 1",Memory is enhanced

# Source: USRE39616E1, “Aminoindan derivatives” (priority 1996, dated 2007)
